Experimental findings from a melting point compilation (Tetko et al.; mined from patent text by program, amines drawn as free bases though some values may be those of a salt) are described below.

Non-standard residues stand in square brackets, D forms with d. Residues, ends and D or L forms follow the SMILES beside them. *: point of attachment. Tic = O=C(O)[C@@H]1Cc2ccccc2CN1; Abu = CC[C@H](N)C(=O)O; NHBu = CCCCN*

The melting point is the temperature of the solid-liquid transition. `CCn1ncc2c1ncc1c(N3CCN(C)CC3)nc3cc(C)nn3c12` registered a melting point of 167 to 169 °C.
`O=C(O)Cc1c(C(=O)c2ccc3c(c2)OCCO3)[nH]c2ccc(C(F)(F)F)cc12` showed a melting point greater than 250 °C.
The same measure for `CC1(C)C(=O)Nc2cc3[nH]c(-c4ccc(-n5ccnc5)cc4)nc3cc21`: 300 °C; for `CC(CCC=CC(=O)O)C1CCC2C3CCC4CC(O)CCC4(C)C3CC(O)C12C` (stereo unspecified): 204 to 208 °C; for `O=C1Nc2ccc(Cl)cc2Cc2sccc21`: 264 to 266 °C.
The same measure for `CCOP(=O)(/C=C/c1cn(-c2ccccc2)nc1OCc1ccc(OCc2nc(N3CCOCC3)sc2C)c(OC)c1)OCC`: 88 to 90 °C.
The same measure for `Cc1noc(NS(=O)(=O)c2ccccc2-c2cccs2)c1C`: 112 to 115 °C; for `COc1ccc([C@@H](O)[C@@H](N)Cc2ccc(C(F)(F)F)cc2)cc1` (racemic): 116 to 117 °C.
Consider `CSC(C#N)NC(=O)c1cccc(Cl)c1` (stereo unspecified), for which the melting point fell in the range of 115 to 117 °C.
On to `N#Cc1cccc(OCc2ccccc2)c1N`, for which the melting point lay in the range of 102 to 103 °C.
For the compound `CC(C=O)=Cc1cc([N+](=O)[O-])ccc1Cl`, the melting point lay within 99 to 102 °C.
For `O=C1CCCC(=O)C1C(=O)c1ccc(Cl)cc1Cl`, the melting point lay within 138 to 140 °C.
`CCOC(=O)C(=O)c1ccc(OCCCn2c(=O)c3ccccc3c3ccccc32)cc1` returned a melting point of 95 to 97 °C.
As to `CN(C)Cc1cn(CCC(=O)O)c(=S)n1C1CCc2ccccc2C1` (stereo unspecified), the melting point is 171 to 174 °C.
The same measure for `CC(C)(C)[Si](C)(C)Oc1ccc2c(c1)CCc1c-2c(=O)oc2cc(O[Si](C)(C)C(C)(C)C)ccc12`: 145 to 147 °C.
The compound `O=C(c1ccc(Cl)cc1)n1cc(Cc2cc(=O)n(C3CCCCC3)[nH]2)c2ccccc21` yielded a melting point of 109 to 111 °C.
Consider `NC(=O)c1ccc(OCc2ccccc2)cc1CCN1CCNCC1`, for which the melting point is 116 to 118 °C.
Regarding `CN(C)CCNC(=O)N1CCC(S(=O)(=O)c2ccc(Cl)cc2)C1` (stereo unspecified), the melting point was in the range of 131 to 132 °C.
On to `CS(=O)(=O)c1ccc(OC2SCC(O)C(O)C2O)cc1` (stereo unspecified), for which the melting point stood at 180 °C.
The same measure for `Cc1ccc(CCOc2ccnc3c(F)cccc23)cc1`: 89 to 90 °C; for `Cc1ccc(-c2ccc(S(N)(=O)=O)cc2)n1-c1ccc(Cl)cc1`: 152 to 154 °C.
The same measure for `COc1ccc(Cn2ccnc2C=Cc2ccc([N+](=O)[O-])o2)cc1`: 151 to 152 °C.
The same measure for `CCCc1c(O)c(C(C)=O)cc2ccc(C(=O)OC)nc12`: 110 to 111 °C; for `CCN(C(=O)N(C)C(=O)NC)c1ccccc1`: 57 to 58 °C; for `CC(=O)SC(C(=O)c1cccc(F)c1)C(C)C(=O)N1CCC[C@H]1C(=O)O` (stereo partly specified): 158 to 159 °C.
Regarding `Cc1ncc(N)cc1Nc1nccc(-c2cccnc2)n1`, the melting point is 135 °C.
The same measure for `Clc1ccc(OC(C(OCc2ccc(Cl)cc2Cl)c2ccc(Cl)cc2Cl)n2cncn2)cc1` (stereo unspecified): 132 to 135 °C; for `CC(C)(C)OC(=O)CCOCCCc1cccc(-c2nc(=O)c3ccccc3s2)n1`: 71 to 71.9 °C; for `CS(=O)(=O)Nc1cc(C(c2cc(F)ccc2F)S(=O)(=O)c2ccc(Cl)cc2)c(Cl)cn1` (stereo unspecified): 220 to 222 °C.
The same measure for `Oc1c(-c2ccccc2)cc(Cn2c(=S)sc3ccccc32)cc1-c1ccccc1`: 145 to 146 °C.
Compound `Cc1cc(N)c2c(c1Cl)CC(C)O2` (stereo unspecified) gave a melting point of 157 to 160 °C.
In the case of `CCCc1nc(SC(F)F)c(C(=O)O)n1Cc1ccc(-c2ccccc2S(=O)(=O)NC(=O)NCc2ccccc2)cc1`, the melting point amounted to 150 °C.
The same measure for `Cn1nc(SCSc2nn(C)c3ccc(Cl)cc3c2=O)c(=O)c2cc(Cl)ccc21`: 352 to 354 °C.
The same measure for `CC(C)c1cnc(NC(=O)Nc2cccc(N)c2)s1`: 113 to 115 °C.
The same measure for `CCOc1cc(O[Si](C)(C)C(C)(C)C)c(C)c(C(=O)OCc2ccc([N+](=O)[O-])cc2)c1C`: 75 to 76 °C.
The compound `CC(=O)c1cc(Nc2nc(N)nc(N)n2)cc(C(C)=O)c1` displayed a melting point of 271 to 272 °C.
The same measure for `CCN(CC)C(=O)n1ccc(S(=O)(=O)c2cccc(Cl)c2C)n1`: 76 to 77 °C.
`CC(C)(C)OC(=O)N1CCC(c2nc3cc(-c4ccc(C(F)(F)F)cc4)ccc3o2)CC1` had a melting point of 166 to 169 °C.
The compound `CN(C)c1ccc(/C=C/c2ccc(F)cc2)cc1` displayed a melting point of 197 to 198 °C.
Compound `COc1c(Cl)ccnc1CO` displayed a melting point of 64 to 66 °C.
For `O=C1CCC(=C2CCC(C3CCCCC3)CC2)CC1` (stereo unspecified), the melting point is 81 to 81.5 °C.
The same measure for `CCOC(=O)CCCCCN1C(=O)c2cccc3cc(N)cc(c23)C1=O`: 108 to 110 °C; for `CC(=O)N1CCc2ccc(Cl)cc2C(c2ccc([N+](=O)[O-])cc2)=N1`: 227 to 229 °C.
The same measure for `N#CN=C(Nc1ccccc1Br)Nc1ccc(C#N)c(Br)c1O`: 142 °C; for `CN1C(=O)CC[C@]2(C)c3ccc(-c4ccc(C(F)(F)F)cc4[N+](=O)[O-])cc3CC[C@@H]12`: 55 to 57 °C; for `CC(C)NC1=NS(=O)(=O)c2cc(Br)ccc2N1`: greater than 220 °C.
The same measure for `CC(C)N(O)C(=O)C=Cc1ccc2ccccc2c1`: 184 to 185 °C; for `COC(=O)c1ccc2c(c1)CN(c1c(F)cc3c(=O)c(C(=O)O)cn4c3c1OCC4C)C2` (stereo unspecified): 257 to 262 °C.
`Cc1cc(Cl)cc2c(-c3ccccc3)onc12` showed a melting point of 108 to 109 °C.
Turning to `Fc1ccc(C2CN(C(c3ccccc3)c3ccccc3)C2)cc1`, the melting point lay in the range of 65 to 66 °C.
The same measure for `O=C1Nc2ccc(-c3cccnc3)cc2C12CCCCC2`: 232 to 234 °C.
For the compound `Cc1ccccc1S(=O)(=O)NC(=O)c1ccc2c(ccn2Cc2cccc([N+](=O)[O-])c2)c1`, the melting point was 208 to 210 °C.
`CCOC(=O)c1c(C)cc2cnc(-c3ccccc3F)nc2c1C` came in with a melting point of 98 to 100 °C.
`CC1OC(CN(C)C(=O)Nc2nnc(S(=O)(=O)N(C)C)s2)OC1C` (stereo unspecified): the melting point lay within 133 to 134 °C.
Take `O=C(NCCO[N+](=O)[O-])c1ccc(C2NC(C(=O)O)CS2)cc1` (stereo unspecified): the melting point fell in the range of 128 to 130 °C.
The same measure for `CCCCNC(=O)[C@@H]1Cc2ccccc2CN1C(=O)[C@@H](N)CC` (H-[Abu]-[Tic]-NHBu): 105 to 110 °C; for `O=C(N[C@H]1CCCNC1=O)c1ccc(C(F)(F)F)cc1`: 212 to 214 °C.
For `CONCc1nc2cnc3ccccc3c2n1CC1CCOCC1`, the melting point was in the range of 58 to 63 °C.
On to `O=C1c2cc(Cl)ccc2-n2cncc2[C@@H]2CCCN12`, for which the melting point is 216 to 217 °C.
The same measure for `C[C@H](CO)Nc1nc(SCc2cccc(F)c2F)nc2c1=NC(=O)C(=O)N=2`: 243 to 246 °C; for `CC(C)c1cccc(C(C)C)c1NC(=O)CC1=C(c2ccccc2)c2cc(Cl)ccc2N(C)C1`: 192 to 194 °C; for `O=C(c1ccc(F)cc1)N1CC2CC2(c2ccccc2)C1` (stereo unspecified): 101 to 103 °C.
`OC/C=C/c1ccc(Cc2cccnc2)cc1` came in with a melting point of 81 to 82 °C.
In turn, `COCc1ncc(C(=O)O)s1` displayed a melting point of 131 °C.
In the case of `O=C(c1ccc([N+](=O)[O-])cc1)N1Cc2ccc(C(=O)C(F)(F)F)n2Cc2ccccc21`, the melting point lay in the range of 169 to 170 °C.
For the compound `Nc1c(Cl)ncnc1N[C@@H]1C=C[C@H](CO)C1`, the melting point fell in the range of 144 to 146 °C.
The same measure for `O=c1ccsn1Cc1ccc2c(c1)CCO2`: 100 to 102 °C; for `Cc1cccc(C)c1NCC(=O)N1CCCO1`: 82 to 83 °C; for `COC(=O)c1ccc2nc3scc(C)c3c(=O)n2c1`: 208 to 209 °C.
The same measure for `Cc1cnc(-c2cc(F)ccc2CNC(=O)c2nc3n(c(=O)c2OCc2ccccc2)CCOC3(C)C)o1`: 186 °C; for `CCOc1c(C(=O)O)oc2c3cc(OC)ccc3n(-c3ccccc3)c12`: 166 to 167 °C.
The same measure for `CC(C)NS(=O)(=O)c1ccc(N2CCC(=O)CC2)cc1`: 103 to 105 °C; for `FC(F)c1nc2ccccc2n1-c1nc(Nc2ccccc2)nc(N2CCOCC2)n1`: 171 to 174 °C; for `Cc1c(C)n(Cc2ccccc2)c(=O)[nH]c1=O`: 187 to 189 °C.
Compound `CC(=O)N1CCc2cc(S(=O)(=O)n3c(CCC(=O)O)cc4cc(Cl)ccc43)ccc21` came in with a melting point of 220 to 223 °C.
Compound `COc1ccc2c(c1)C(=O)Nc1ccccc1N2` came in with a melting point of 216 to 218 °C.
The compound `CCCCCCCCCCC=NNC(=N)N` registered a melting point of 101 °C.
In turn, `O=C(c1ccc(Cl)cc1)N1CCC(=Cc2ccc(C3=NCCO3)cc2)CC1` returned a melting point of 163 to 164 °C.
The same measure for `CNC(=O)c1c(NC(=O)CCl)c(OC)c(C(=O)NC)c([N+](=O)[O-])c1OC`: 259 to 260 °C; for `CCCCCCCCCCCCCCCCOC(=O)Cl`: greater than 230 °C; for `O=C(O)C(Cl)(Cl)CCCCCCCCCCCCCCBr`: 61 to 63 °C.
The compound `C[Si](C)(C)CCCCCCCCCCCCCCNc1ccc(C(=O)O)cc1` yielded a melting point of 105 to 107 °C.
Compound `N#Cc1ccc(-c2cn(-c3ccc(C#N)cc3)cn2)cc1` yielded a melting point of 258 to 263 °C.
Compound `Nc1cccc(C(O)c2cc3c(Oc4ccc(Cl)cc4)cncc3s2)c1` (stereo unspecified) yielded a melting point of 73 to 78 °C.
As to `Clc1ccc(-c2nc(-c3ccccc3)sc2CBr)cc1`, the melting point lay in the range of 108 to 109 °C.
The same measure for `CC(NC(=O)C(N)CC(=O)O)C(=O)NC1C(C)(C)SC1(C)C` (stereo unspecified): 57.2 °C; for `CCOC(=O)CC/C=C(\C)c1sccc1Br`: 62 to 64 °C; for `OCCCn1c(S)nc2ccccc21`: 110 °C.
The same measure for `CC(C)CCCC(C)C1CC=C2C3=C(CCC21C)C1(C)CCC(O)CC1CC3` (stereo unspecified): 113 to 114 °C.
The same measure for `Clc1[nH]ncc1-c1csc(Nc2ccccn2)n1`: 299 to 304 °C; for `CCCCCC#CCC(CC#CCCCCC)(C(=O)NO)S(=O)(=O)c1ccc(OC)cc1`: 83 to 84 °C.
